Data as given in US20040192594A1 (priority 2002, published 2004).
pIC50: −log10 of the molar value. Like-named read-outs stand apart in the source and are kept apart here.

Key:
[1] = molecular target: Torpedo maramorta AchR (Torpedo marmorata, UniProt P02711); set-up: Relative Affinity: reference not given here; details: cited from earlier work
[2] = system: cell lines in tissue culture
[3] = system: mice; details: mouse, in vivo
[4] = system: mice; details: mouse, in vivo, sc

| Compound | pIC50 [1] | Relative Affinity [1] | pIC50 ([1]; read-out: IC50) | Toxicity to cell lines [2] | Paralysis in mice injected with the toxin [3] | Time to death (average) [4] |
| --- | --- | --- | --- | --- | --- | --- |
| C[N+](C)(C)CCOC(N)=O.[Cl-] [Carbamylcholinechloride] | 2.55 | 0.09 | – | – | – | – |
| CN1CCCC1c1cccnc1 (stereo not drawn) [Nicotine] | 2.85 | 0.19 | – | – | – | – |
| C[N+](C)(C)CCOC(=O)CCCCCCC(=O)OCC[N+](C)(C)C.[I-].[I-] [Suderyldicholine] | – | 104.0 | 5.60 | – | – | – |
| COc1cc2c3cc1Oc1cc(ccc1O)C[C@@H]1c4c(cc(OC)c(O)c4Oc4ccc(cc4)C[C@@H]3N(C)CC2)CC[N+]1(C)C [d-Tubocurarine] | – | 76.5 | 5.47 | – | – | – |
| alpha Bungarotoxin | – | 30,952.0 | 8.08 | – | – | – |
| alpha cobratoxin | – | 1,529.0 | 6.77 | not toxic | very little or no paralysis | 20.5 min |
